Assay results: PMC9899610 (Cancer Science, 2022)
Several values for one entry are separate records, joined by “and”; a condition that tells them apart may be missing. Equal entries are not always repeated. Entries after “also recorded” stand apart in the source; their conditions may differ.

How the values were obtained:
[1] = tested on: advanced solid tumors; assay: Objective tumor response; assay type: in vivo, human
[2] = tested on: serum Pi; assay: Post hoc hyperphosphatemia assessment with phosphate-binding therapy; assay type: in vivo, human
[3] = clinical; conditions: human, plasma, oral; for AUC(0-inf): AUC0–inf; for AUC(0-t): AUC0–last
[4] = tested on: patients with advanced solid tumors; conditions: global phase I study, 64% Caucasian patients; cited from earlier work
[5] = tested on: cancer cell lines harboring various FGFR gene abnormalities; conditions: cited from earlier work
[6] = With FGF/FGFR abnormalities (n = 52)
[7] = Without FGF/FGFR abnormalities or unknown (n = 30)
[8] = 40 QD patients treated with phosphate-binding therapy
[9] = 16 mg, Day 1, QD 16 mg, n = 3, mean (standard deviation)
[10] = 16 mg, Week 3, TIW 16 mg, n = 1
[11] = 20 mg, Day 1, QD 20 mg, n = 7, mean (standard deviation)
[12] = 20 mg, Week 3 (day 21), QD 20 mg, n = 2, mean
[13] = 24 mg, Week 3, TIW 24 mg, n = 1

C=CC(=O)N1CC[C@H](n2nc(C#Cc3cc(OC)cc(OC)c3)c3c(N)ncnc32)C1 [futibatinib]
Best response PD ([1]; Total (n = 82)): 46 (56.1) n (%) | Best response SD ([1]; Total (n = 82)): 21 n (%) and 21 (25.6) n (%) | DCR (95% CI) ([1]; Total (n = 82)): 32.9 (22.9–44.2) % | ORR (95% CI) ([1]; Total (n = 82)): 7.3 (2.7–15.2) % | Best response CR [1, 6]: 0 (0.0) n (%) | Best response NE [1, 6]: 6 (11.5) n (%) | Best response PD [1, 6]: 27 (51.9) n (%) | Best response PR [1, 6]: 6 (11.5) n (%) | Best response SD [1, 6]: 13 (25.0) n (%) | DCR (95% CI) [1, 6]: 36.5 (23.6–51.0) % | ORR (95% CI) [1, 6]: 11.5 (4.4–23.4) % | Best response CR [1, 7]: 0 (0.0) n (%) | Best response NE [1, 7]: 3 (10.0) n (%) | Best response PD [1, 7]: 19 (63.3) n (%) | Best response PR [1, 7]: 0 (0.0) n (%) | Best response SD [1, 7]: 8 (26.7) n (%) | DCR (95% CI) [1, 7]: 26.7 (12.3–45.9) % | ORR (95% CI) [1, 7]: 0 (0–11.6) % | Patients with confirmed PR ([1]; patients with GC evaluated for response): 4/21 | Futibatinib dose interruption [2, 8]: 30% | Futibatinib dose reduction [2, 8]: 12.5% | Safety concerns regardless of presence or absence of phosphate-binding therapy ([2]; futibatinib QD): No safety concerns were identified | Patients achieving the target serum Pi level ([2]; futibatinib dose reduction after starting phosphate-binding therapy (15 patients)): 86.7% | Hyperphosphatemia events leading to discontinuation of futibatinib ([2]; in vivo): not leading to futibatinib discontinuation; also recorded: none of the hyperphosphatemia events led to discontinuation of futibatinib | Patients achieving the target serum Pi level ([2]; no dose reduction after starting phosphate-binding therapy (10/20)): 50.0% | AUC(0-inf) ([3]; 8 mg, Day 1, TIW 8 mg, n = 1): 390 ng·h/mL | AUC(0-inf) ([3]; 8 mg, Week 3, TIW 8 mg, n = 1): 663 ng·h/mL | AUC(0-t) ([3]; 8 mg, Day 1, TIW 8 mg, n = 1): 387 ng·h/mL | AUC(0-t) ([3]; 8 mg, Week 3, TIW 8 mg, n = 1): 653 ng·h/mL | Cmax ([3]; 8 mg, Day 1, TIW 8 mg, n = 1): 135 ng/mL | Tmax ([3]; 8 mg, Day 1, TIW 8 mg, n = 1, median): 1.87 h | half-life ([3]; 8 mg, t1/2, Day 1, TIW 8 mg, n = 1): 1.58 h | AUC(0-inf) [3, 9]: 1020 ng·h/mL | AUC(0-inf) ([3]; 16 mg, Day 1, TIW 16 mg, n = 1): 1190 ng·h/mL | AUC(0-inf) [3, 10]: 1580 ng·h/mL | AUC(0-t) [3, 9]: 1010 ng·h/mL | AUC(0-t) ([3]; 16 mg, Day 1, TIW 16 mg, n = 1): 1140 ng·h/mL | AUC(0-t) [3, 10]: 1580 ng·h/mL | Cmax [3, 9]: 235 ng/mL | Cmax ([3]; 16 mg, Day 1, TIW 16 mg, n = 1): 189 ng/mL | Cmax [3, 10]: 182 ng/mL | Tmax ([3]; 16 mg, Day 1, QD 16 mg, n = 3, median (minimum, maximum)): 0.95 h | Tmax ([3]; 16 mg, Day 1, TIW 16 mg, n = 1, median): 1.95 h | Tmax ([3]; 16 mg, Week 3, TIW 16 mg, n = 1, median): 2.9 h | half-life ([3]; 16 mg, t1/2, Day 1, QD 16 mg, n = 3, mean (standard deviation)): 2.68 h | half-life ([3]; 16 mg, t1/2, Day 1, TIW 16 mg, n = 1): 5.72 h | AUC(0-inf) [3, 11]: 983 ng·h/mL | AUC(0-inf) [3, 12]: 729 ng·h/mL | AUC(0-t) [3, 11]: 977 ng·h/mL | AUC(0-t) [3, 12]: 727 ng·h/mL | Cmax [3, 11]: 253 ng/mL | half-life ([3]; 20 mg, t1/2, Day 1, QD 20 mg, n = 7, mean (standard deviation)): 2.18 h | half-life ([3]; 20 mg, t1/2, Week 3 (day 21), QD 20 mg, n = 2, mean): 3.05 h | AUC(0-inf) ([3]; 24 mg, Day 1, TIW 24 mg, n = 1): 623 ng·h/mL | AUC(0-inf) [3, 13]: 502 ng·h/mL | AUC(0-t) ([3]; 24 mg, Day 1, TIW 24 mg, n = 1): 621 ng·h/mL | AUC(0-t) [3, 13]: 499 ng·h/mL | Cmax ([3]; 24 mg, Day 1, TIW 24 mg, n = 1): 204 ng/mL | Cmax [3, 13]: 146 ng/mL | Tmax ([3]; 24 mg, Day 1, TIW 24 mg, n = 1, median): 1.95 h | Tmax ([3]; 24 mg, Week 3, TIW 24 mg, n = 1, median): 3.98 h | half-life ([3]; 24 mg, t1/2, Day 1, TIW 24 mg, n = 1): 1.55 h | half-life ([3]; 24 mg, t1/2, Week 3, TIW 24 mg, n = 1): 1.47 h | AUC(0-inf) ([3]; 36 mg, Week 3, TIW 36 mg, n = 3, mean): 2160 ng·h/mL | half-life ([3]; 36 mg, t1/2, Week 3, TIW 36 mg, n = 2, mean): 3.64 h | Dose proportionality of Cmax and AUC [4]: statistically dose‐proportional between 4 mg and 24 mg QD | Susceptibility to resistance development [5]: low susceptibility to resistance development
